Earlier results as cited in patent US20030158162A1, “Methods of treating ophthalmic disorders with epoxy-steroidal aldosterone receptor antagonists” (priority 2001, published 2003).

Conditions: Klin Monatsbl Augenheilkd 176(3):445-6 (1980)

Question: For `CC(=O)S[C@@H]1CC2=CC(=O)CC[C@]2(C)[C@H]2CC[C@@]3(C)[C@@H](CC[C@@]34CCC(=O)O4)[C@H]12` [Spironolactone], which “effect on IOP in glaucoma patients” value is on record?
Answer: lower IOP
